Test results taken from ChEMBL document CHEMBL3885881, “DrugMatrix”.

Legend:
Rattus norvegicus [1] = species: Rattus norvegicus; type: toxicity, organism-based, Sprague-Dawley; conditions: in vivo, po, 17 mg/kg, 24 h, route oral GAVAGE, dose level High, time 1 day, vehicle .5 % CMC
Description: DrugMatrix - Regimen: Single

Rattus norvegicus [2] = species: Rattus norvegicus; test: DrugMatrix - Regimen: Daily Repeat; type: toxicity, organism-based, Sprague-Dawley; set-up: regimen Daily Repeat, gender Male, age 6-8 weeks; conditions: in vivo, po, 17 mg/kg, 72 h, route oral GAVAGE, dose level High, time 3 day, vehicle .5 % CMC

O=C(Nc1c(Cl)cncc1Cl)c1ccc(OC(F)F)c(OCC2CC2)c1 [ROFLUMILAST]
ABSOLUTE EOSINOPHIL (Rattus norvegicus [1]; tissue Blood): 58.67 CELLS/uL | ABSOLUTE LYMPHOCYTE (Rattus norvegicus [1]; tissue Blood): 7680 CELLS/uL | ABSOLUTE MONOCYTE (Rattus norvegicus [1]; tissue Blood): 245.33 CELLS/uL | ABSOLUTE SEGMENTED NEUTROPHIL (Rattus norvegicus [1]; tissue Blood): 416 CELLS/uL | BASOPHIL (Rattus norvegicus [1]; tissue Blood): 0% | EOSINOPHIL (Rattus norvegicus [1]; tissue Blood): 0.67% | ERYTHROCYTE COUNT (Rattus norvegicus [1]; tissue Blood): 5.72 x10E6/uL | HEMATOCRIT (Rattus norvegicus [1]; tissue Blood): 34.83% | HEMOGLOBIN (Rattus norvegicus [1]; tissue Blood): 12.9 G/DL | LEUKOCYTE COUNT (Rattus norvegicus [1]; tissue Blood): 8.4 x10E3/uL | LYMPHOCYTE (Rattus norvegicus [1]; tissue Blood): 91.33% | MEAN CORPUSCULAR HEMOGLOBIN (Rattus norvegicus [1]; tissue Blood): 22.67 pg | MEAN CORPUSCULAR HEMOGLOBIN CONCENTRATION (Rattus norvegicus [1]; tissue Blood): 37.1 G/DL | MONOCYTE (Rattus norvegicus [1]; tissue Blood): 3% | NEUTROPHIL (Rattus norvegicus [1]; tissue Blood): 5% | NUCLEATED RED BLOOD CELLS (Rattus norvegicus [1]; tissue Blood): 0 /100WBC | PLATELET COUNT (Rattus norvegicus [1]; tissue Blood): 734 x10E3/uL | ALANINE AMINOTRANSFERASE (Rattus norvegicus [1]; tissue Plasma): 52.33 u/L | ALBUMIN (Rattus norvegicus [1]; tissue Plasma): 4.07 G/DL | ALKALINE PHOSPHATASE (Rattus norvegicus [1]; tissue Plasma): 343 u/L | ASPARTATE AMINOTRANSFERASE (Rattus norvegicus [1]; tissue Plasma): 103 u/L | BLOOD UREA NITROGEN (Rattus norvegicus [1]; tissue Plasma): 16.33 mg/dL | CARBON DIOXIDE (Rattus norvegicus [1]; tissue Plasma): 32 mmol/L | CHLORIDE (Rattus norvegicus [1]; tissue Plasma): 103.33 MEQ/L | CHOLESTEROL (Rattus norvegicus [1]; tissue Plasma): 76.67 mg/dL | CREATININE (Rattus norvegicus [1]; tissue Plasma): 0.17 mg/dL | GLUCOSE (Rattus norvegicus [1]; tissue Plasma): 156.33 mg/dL | LACTATE DEHYDROGENASE (Rattus norvegicus [1]; tissue Plasma): 133.67 u/L | LIPASE (Rattus norvegicus [1]; tissue Plasma): 9.33 u/L | PHOSPHORUS (Rattus norvegicus [1]; tissue Plasma): 12.87 mg/dL | POTASSIUM (Rattus norvegicus [1]; tissue Plasma): 6.09 MEQ/L | SODIUM (Rattus norvegicus [1]; tissue Plasma): 148.53 MEQ/L | TOTAL BILIRUBIN (Rattus norvegicus [1]; tissue Plasma): 0.17 mg/dL | TOTAL PROTEIN (Rattus norvegicus [1]; tissue Plasma): 6.2 G/DL | URIC ACID (Rattus norvegicus [1]; tissue Plasma): 1.27 mg/dL | ABSOLUTE BASOPHIL (Rattus norvegicus [2]; tissue Blood): 0 CELLS/uL | ABSOLUTE EOSINOPHIL (Rattus norvegicus [2]; tissue Blood): 460.33 CELLS/uL | ABSOLUTE LYMPHOCYTE (Rattus norvegicus [2]; tissue Blood): 8656.33 CELLS/uL | ABSOLUTE MONOCYTE (Rattus norvegicus [2]; tissue Blood): 1347.33 CELLS/uL | ABSOLUTE SEGMENTED NEUTROPHIL (Rattus norvegicus [2]; tissue Blood): 10002.67 CELLS/uL | BASOPHIL (Rattus norvegicus [2]; tissue Blood): 0% | EOSINOPHIL (Rattus norvegicus [2]; tissue Blood): 2.33% | ERYTHROCYTE COUNT (Rattus norvegicus [2]; tissue Blood): 6.23 x10E6/uL | HEMATOCRIT (Rattus norvegicus [2]; tissue Blood): 37.23% | HEMOGLOBIN (Rattus norvegicus [2]; tissue Blood): 13.5 G/DL | LEUKOCYTE COUNT (Rattus norvegicus [2]; tissue Blood): 20.47 x10E3/uL | LYMPHOCYTE (Rattus norvegicus [2]; tissue Blood): 42.67% | MEAN CORPUSCULAR HEMOGLOBIN (Rattus norvegicus [2]; tissue Blood): 21.7 pg | MEAN CORPUSCULAR HEMOGLOBIN CONCENTRATION (Rattus norvegicus [2]; tissue Blood): 36.27 G/DL | MONOCYTE (Rattus norvegicus [2]; tissue Blood): 6.33% | NEUTROPHIL (Rattus norvegicus [2]; tissue Blood): 48.67% | NUCLEATED RED BLOOD CELLS (Rattus norvegicus [2]; tissue Blood): 0 /100WBC | PLATELET COUNT (Rattus norvegicus [2]; tissue Blood): 1131 x10E3/uL | ALANINE AMINOTRANSFERASE (Rattus norvegicus [2]; tissue Plasma): 18 u/L | ALBUMIN (Rattus norvegicus [2]; tissue Plasma): 3.07 G/DL | ALKALINE PHOSPHATASE (Rattus norvegicus [2]; tissue Plasma): 189.33 u/L | ASPARTATE AMINOTRANSFERASE (Rattus norvegicus [2]; tissue Plasma): 63 u/L | BLOOD UREA NITROGEN (Rattus norvegicus [2]; tissue Plasma): 17.33 mg/dL | CARBON DIOXIDE (Rattus norvegicus [2]; tissue Plasma): 28.33 mmol/L | CHLORIDE (Rattus norvegicus [2]; tissue Plasma): 97.33 MEQ/L | CHOLESTEROL (Rattus norvegicus [2]; tissue Plasma): 61 mg/dL | CREATININE (Rattus norvegicus [2]; tissue Plasma): 0.15 mg/dL | GLUCOSE (Rattus norvegicus [2]; tissue Plasma): 131.67 mg/dL | LACTATE DEHYDROGENASE (Rattus norvegicus [2]; tissue Plasma): 149.67 u/L | LIPASE (Rattus norvegicus [2]; tissue Plasma): 8.33 u/L | PHOSPHORUS (Rattus norvegicus [2]; tissue Plasma): 10.43 mg/dL | POTASSIUM (Rattus norvegicus [2]; tissue Plasma): 4.72 MEQ/L | SODIUM (Rattus norvegicus [2]; tissue Plasma): 144.73 MEQ/L | TOTAL BILIRUBIN (Rattus norvegicus [2]; tissue Plasma): 0.1 mg/dL | TOTAL PROTEIN (Rattus norvegicus [2]; tissue Plasma): 6.4 G/DL | URIC ACID (Rattus norvegicus [2]; tissue Plasma): 1.37 mg/dL
